Experimental data as given in patent US4931447A, “Cycloalkylamides of (8β)-1-alkyl-6-(substituted) ergolines” (Eli Lilly and Company, priority 1989, dated 1990).

What was measured:
Type in all cases: in vivo, rat (male Sprague-Dawley)
Male Rats [1] = experiment: Copulatory performance of male rats, subcutaneous administration (Tables III, IV); conditions: for Postejaculatory Latency / Ejaculatory Latency: 30 min before test; for Copulatory Rate: number of mounts per minute
Protocol: (§1) Adult male rats of the Sprague-Dawley strain were used in these studies. The sexual behavior evaluations were conducted at 2-week intervals beginning at 6 months of age and ending at 12 months of age. During the initial screening process, the male rats of various levels of sexual performance were selected for compound testing. […] Prior to treatment with a drug solution, each male rat was required to have at least two consecutive vehicle tests with similar sexual performance. Following each compound testing, additional vehicle tests were performed.
(§2) The mating tests were performed during the dark phase of the lighting cycle using red light illumination. Each behavioral test was initiated with the introduction of a receptive female rat into the arena and was terminated either 30 minutes later or immediately following the first postejaculatory mount. The indiees of mating performance that were evaluated for the rats capable of ejaculation included mount latency (the time interval from the introduction of the female rat to the first mount); intromission latency (the time interval from the introduction of the female rat to the first intromission); ejaculatory latency (the time interval from intromission to ejaculation); postejaculatory interval (the time from ejaculation to the next mount); mount frequency (the total number of mounts with or without intromission prior to ejaculation); intromission frequency (the number of mounts with intromission prior to ejaculation); intromission efficiency (the intromission frequency divided by the mount frequency); copulatory rate (the number of mounts per minute); copulatory frequency (the number of mounts prior to ejaculation); and copulatory efficiency (the number of mounts with intromission divided by the total number of mounts).
(§3) Each male rat was given a solution containing either the vehicle alone in water or the compound of Example 1, (8β)-N-cyclohexyl-1-isopropyl-6-methylergoline-8-carboxamide, in the same vehicle. Vehicle was made of 1 mM (millimolar) acetic acid and 1 mM ascorbic acid.
(§4) The results of these studies are set forth below in Tables II-VII. In the Tables "N" is the number of animals used to generate the data, the average of which is provided. The specific description of the test performed is set forth in the heading of the Tables.
Control values were obtained from the same rats 2 weeks earlier following
All injections were made 30 minutes prior to testing

Male Rats [2] = experiment: Copulatory performance of male rats after various time periods following subcutaneous administration at 10 mcg/kg (Table VII); conditions: 10 mcg/kg s.c.
Protocol: as §1, §2, §3, §4
Of Example 1 at 10 mcg/kg After Various Time Periods

Male Rats [3] = experiment: Copulatory performance of male rats, oral administration (Tables V, VI); conditions: for Postejaculatory Latency / Ejaculatory Latency: 90 min before test, seconds per Table III; for Copulatory Rate: number of mounts per minute
Protocol: as §1, §2, §3, §4
All solutions were administered by gavage 90 minutes prior to testing.
Control responses were obtained from the same rats 2 weeks earlier
following vehicle administration by gavage.

With CC(C)n1cc2c3c(cccc31)[C@H]1C[C@@H](C(=O)NC3CCCCC3)CN(C)[C@@H]1C2 [Example 1, (8β)-N-Cyclohexyl-1-isopropyl-6-methylergoline-8-carboxamide] the “Postejaculatory Latency” value (Male Rats [1]; 0.01 mcg/kg s.c., N = 14, control 366.9 ± 15.6) was 366.8 ± 19.8 s, the “Ejaculatory Latency” value (Male Rats [1]; 0.01 mcg/kg s.c., N = 14, control 602.6 ± 47.4) was 530.4 ± 64.6 s and the “Copulatory Efficiency” value (Male Rats [1]; 0.01 mcg/kg s.c., N = 14, control 0.59 ± 0.05) was 0.56 ± 0.03. The “Mount Frequency” value (Male Rats [1]; 0.01 mcg/kg s.c., N = 14, control 20.1 ± 2.4) was 21.4 ± 2.0, the “Copulatory Rate” value (Male Rats [1]; 0.01 mcg/kg s.c., N = 14, control 2.1 ± 0.2) was 2.4 ± 0.3 and the “Postejaculatory Latency” value (Male Rats [1]; 0.10 mcg/kg s.c., N = 15, control 367.1 ± 18.7) was 355.9 ± 13.2 s. The “Ejaculatory Latency” value (Male Rats [1]; 0.10 mcg/kg s.c., N = 15, control 747.9 ± 61.8, significant (*)) was 532.9 ± 58.0 s, the “Copulatory Efficiency” value (Male Rats [1]; 0.10 mcg/kg s.c., N = 15, control 0.38 ± 0.03, significant (*)) was 0.54 ± 0.04 and the “Mount Frequency” value (Male Rats [1]; 0.10 mcg/kg s.c., N = 15, control 25.0 ± 2.3) was 22.9 ± 2.6. The “Copulatory Rate” value (Male Rats [1]; 0.10 mcg/kg s.c., N = 15, control 2.0 ± 0.2, significant (*)) was 2.7 ± 0.3, the “Postejaculatory Latency” value (Male Rats [1]; 1.0 mcg/kg s.c., N = 11, control 371.2 ± 19.8) was 357.3 ± 9.5 s and the “Ejaculatory Latency” value (Male Rats [1]; 1.0 mcg/kg s.c., N = 11, control 749.5 ± 59.1, significant (*)) was 584.8 ± 89.4 s. The “Copulatory Efficiency” value (Male Rats [1]; 1.00 mcg/kg s.c., N = 11, control 0.53 ± 0.04, significant (*)) was 0.67 ± 0.03, the “Mount Frequency” value (Male Rats [1]; 1.00 mcg/kg s.c., N = 11, control 23.1 ± 2.4) was 21.4 ± 1.7 and the “Copulatory Rate” value (Male Rats [1]; 1.00 mcg/kg s.c., N = 11, control 1.9 ± 0.2, significant (*)) was 2.4 ± 0.2. For the same molecule, the “Postejaculatory Latency” value (Male Rats [1]; 10.0 mcg/kg s.c., N = 11, control 368.3 ± 23.0) was 333.9 ± 10.9 s, the “Ejaculatory Latency” value (Male Rats [1]; 10.0 mcg/kg s.c., N = 11, control 850.4 ± 99.2, significant (*)) was 454.1 ± 78.4 s and the “Copulatory Efficiency” value (Male Rats [1]; 10.0 mcg/kg s.c., N = 11, control 0.49 ± 0.05, significant (*)) was 0.57 ± 0.04. The “Mount Frequency” value (Male Rats [1]; 10.0 mcg/kg s.c., N = 11, control 23.2 ± 2.1) was 18.5 ± 2.4, the “Copulatory Rate” value (Male Rats [1]; 10.0 mcg/kg s.c., N = 11, control 1.7 ± 0.2, significant (*)) was 2.6 ± 0.4 and the “Postejaculatory Latency” value (Male Rats [1]; 100.0 mcg/kg s.c., N = 16, control 373.3 ± 22.8) was 325.6 ± 16.0 s. For the same molecule, the “Ejaculatory Latency” value (Male Rats [1]; 100.0 mcg/kg s.c., N = 16, control 731.8 ± 44.5, significant (*)) was 463.6 ± 46.6 s, the “Copulatory Efficiency” value (Male Rats [1]; 100.0 mcg/kg s.c., N = 16, control 0.49 ± 0.03, significant (*)) was 0.59 ± 0.04 and the “Mount Frequency” value (Male Rats [1]; 100.0 mcg/kg s.c., N = 16, control 24.8 ± 2.3) was 21.3 ± 1.4. For the same molecule, the “Copulatory Rate” value (Male Rats [1]; 100.0 mcg/kg s.c., N = 16, control 2.1 ± 0.2, significant (*)) was 2.9 ± 0.3, the “Copulatory Rate” value (Male Rats [2]; 0.5 hours, N = 11, control 1.7 ± 0.2, significant (*)) was 2.6 ± 0.4 mounts/minute and the “Postejaculatory Interval” value (Male Rats [2]; 0.5 hours, N = 11, control 368.3 ± 23.0) was 333.9 ± 10.9 s. The “Ejaculatory Latency” value (Male Rats [2]; 0.5 hours, N = 11, control 850.4 ± 99.2, significant (*)) was 454.1 ± 78.4 s, the “Copulatory Rate” value (Male Rats [2]; 8.0 hours, N = 11, control 2.6 ± 0.2, significant (*)) was 3.9 ± 0.5 mounts/minute and the “Postejaculatory Interval” value (Male Rats [2]; 8.0 hours, N = 11, control 349.5 ± 16.8, significant (*)) was 320.1 ± 17.0 s. For the same molecule, the “Ejaculatory Latency” value (Male Rats [2]; 8.0 hours, N = 11, control 653.1 ± 61.7, significant (*)) was 402.3 ± 59.7 s, the “Copulatory Rate” value (Male Rats [2]; 24.0 hours, N = 15, control 2.0 ± 0.3, significant (*)) was 2.8 ± 0.4 mounts/minute and the “Postejaculatory Interval” value (Male Rats [2]; 24.0 hours, N = 15, control 422.4 ± 25.5) was 391.7 ± 18.7 s. The “Ejaculatory Latency” value (Male Rats [2]; 24.0 hours, N = 15, control 815.5 ± 64.6, significant (*)) was 604.1 ± 68.4 s, the “Copulatory Rate” value (Male Rats [2]; 48.0 hours, N = 11, control 2.4 ± 0.2, significant (*)) was 2.5 ± 0.2 mounts/minute and the “Postejaculatory Interval” value (Male Rats [2]; 48.0 hours, N = 11, control 364.8 ± 27.8, significant (*)) was 365.4 ± 20.2 s. For the same molecule, the “Ejaculatory Latency” value (Male Rats [2]; 48.0 hours, N = 11, control 591.0 ± 33.8) was 531.8 ± 60.6 s, the “Postejaculatory Latency” value (Male Rats [3]; 0.01 mcg/kg oral gavage, N = 17, control 358.5 ± 23.1) was 370.2 ± 23.7 and the “Ejaculatory Latency” value (Male Rats [3]; 0.01 mcg/kg oral gavage, N = 17, control 713.6 ± 58.1, significant (*)) was 689.2 ± 91.2. For the same molecule, the “Copulatory Efficiency” value (Male Rats [3]; 0.01 mcg/kg oral gavage, N = 17, control 0.43 ± 0.04) was 0.46 ± 0.05, the “Mount Frequency” value (Male Rats [3]; 0.01 mcg/kg oral gavage, N = 17, control 29.7 ± 2.9, significant (*)) was 27.5 ± 4.4 and the “Copulatory Rate” value (Male Rats [3]; 0.01 mcg/kg oral gavage, N = 17, control 2.5 ± 0.2) was 2.3 ± 0.2. The “Postejaculatory Latency” value (Male Rats [3]; 0.1 mcg/kg oral gavage, N = 14, control 381.9 ± 13.4, significant (*)) was 313.4 ± 12.0, the “Ejaculatory Latency” value (Male Rats [3]; 0.1 mcg/kg oral gavage, N = 14, control 735.4 ± 51.9, significant (*)) was 486.5 ± 70.8 and the “Copulatory Efficiency” value (Male Rats [3]; 0.1 mcg/kg oral gavage, N = 14, control 0.60 ± 0.05) was 0.60 ± 0.05. The “Mount Frequency” value (Male Rats [3]; 0.1 mcg/kg oral gavage, N = 14, control 19.4 ± 2.4) was 18.7 ± 2.1, the “Copulatory Rate” value (Male Rats [3]; 0.1 mcg/kg oral gavage, N = 14, control 1.7 ± 0.2, significant (*)) was 2.5 ± 0.4 and the “Postejaculatory Latency” value (Male Rats [3]; 1.0 mcg/kg oral gavage, N = 8, control 384.1 ± 23.5) was 322.1 ± 15.3. For the same molecule, the “Ejaculatory Latency” value (Male Rats [3]; 1.0 mcg/kg oral gavage, N = 8, control 646.3 ± 51.0) was 415.9 ± 62.3, the “Copulatory Efficiency” value (Male Rats [3]; 1.0 mcg/kg oral gavage, N = 8, control 0.59 ± 0.06) was 0.58 ± 0.04 and the “Mount Frequency” value (Male Rats [3]; 1.0 mcg/kg oral gavage, N = 8, control 21.1 ± 3.9, significant (*)) was 16.8 ± 1.8. The “Copulatory Rate” value (Male Rats [3]; 1.0 mcg/kg oral gavage, N = 8, control 2.0 ± 0.4) was 2.7 ± 0.4, the “Postejaculatory Latency” value (Male Rats [3]; 10.0 mcg/kg oral gavage, N = 12, control 345.1 ± 20.3, significant (*)) was 299.7 ± 15.1 and the “Ejaculatory Latency” value (Male Rats [3]; 10.0 mcg/kg oral gavage, N = 12, control 731.0 ± 87.0, significant (*)) was 434.2 ± 37.9. The “Copulatory Efficiency” value (Male Rats [3]; 10.0 mcg/kg oral gavage, N = 12, control 0.43 ± 0.03) was 0.49 ± 0.04, the “Mount Frequency” value (Male Rats [3]; 10.0 mcg/kg oral gavage, N = 12, control 25.9 ± 1.6) was 22.9 ± 1.2 and the “Copulatory Rate” value (Male Rats [3]; 10.0 mcg/kg oral gavage, N = 12, control 2.2 ± 0.2, significant (*)) was 3.3 ± 0.3. For the same molecule, the “Postejaculatory Latency” value (Male Rats [3]; 100.0 mcg/kg oral gavage, N = 8, control 417.9 ± 28.4) was 350.6 ± 29.5, the “Ejaculatory Latency” value (Male Rats [3]; 100.0 mcg/kg oral gavage, N = 8, control 804.6 ± 73.5, significant (*)) was 366.1 ± 52.2 and the “Copulatory Efficiency” value (Male Rats [3]; 100.0 mcg/kg oral gavage, N = 8, control 0.51 ± 0.06, significant (*)) was 0.69 ± 0.04. The “Mount Frequency” value (Male Rats [3]; 100.0 mcg/kg oral gavage, N = 8, control 19.4 ± 1.7, significant (*)) was 14.4 ± 1.3 and the “Copulatory Rate” value (Male Rats [3]; 100.0 mcg/kg oral gavage, N = 8, control 1.4 ± 0.1, significant (*)) was 2.6 ± 0.4.
